Source: publication PMC5940250 (The Journal of General Physiology, 2018)
Counter-ions that a name gives are not always drawn.

Tests used:
Assay in all cases: two-electrode voltage clamp, oocytes, G
Assay type in all cases: cell-based
[1] = biological target: T1, human M channel (hKV7.2/7.3) (Homo sapiens, UniProt O43525+O43526)
[2] = biological target: Shaker KV channel (Shaker H4, Δ6-46; "WT Shaker KV channel") (Drosophila melanogaster, UniProt P08510, DEL6-46/L358R/R362Q)
[3] = biological target: Shaker KV channel (Shaker H4, Δ6-46; "WT Shaker KV channel") (Drosophila melanogaster, UniProt P08510, DEL6-46/R362Q)
[4] = biological target: T1, human M channel (hKV7.2/7.3); conditions: 100 µM; pH 7.4, room temperature; not significant

T1 sequence (O43526 whole entry): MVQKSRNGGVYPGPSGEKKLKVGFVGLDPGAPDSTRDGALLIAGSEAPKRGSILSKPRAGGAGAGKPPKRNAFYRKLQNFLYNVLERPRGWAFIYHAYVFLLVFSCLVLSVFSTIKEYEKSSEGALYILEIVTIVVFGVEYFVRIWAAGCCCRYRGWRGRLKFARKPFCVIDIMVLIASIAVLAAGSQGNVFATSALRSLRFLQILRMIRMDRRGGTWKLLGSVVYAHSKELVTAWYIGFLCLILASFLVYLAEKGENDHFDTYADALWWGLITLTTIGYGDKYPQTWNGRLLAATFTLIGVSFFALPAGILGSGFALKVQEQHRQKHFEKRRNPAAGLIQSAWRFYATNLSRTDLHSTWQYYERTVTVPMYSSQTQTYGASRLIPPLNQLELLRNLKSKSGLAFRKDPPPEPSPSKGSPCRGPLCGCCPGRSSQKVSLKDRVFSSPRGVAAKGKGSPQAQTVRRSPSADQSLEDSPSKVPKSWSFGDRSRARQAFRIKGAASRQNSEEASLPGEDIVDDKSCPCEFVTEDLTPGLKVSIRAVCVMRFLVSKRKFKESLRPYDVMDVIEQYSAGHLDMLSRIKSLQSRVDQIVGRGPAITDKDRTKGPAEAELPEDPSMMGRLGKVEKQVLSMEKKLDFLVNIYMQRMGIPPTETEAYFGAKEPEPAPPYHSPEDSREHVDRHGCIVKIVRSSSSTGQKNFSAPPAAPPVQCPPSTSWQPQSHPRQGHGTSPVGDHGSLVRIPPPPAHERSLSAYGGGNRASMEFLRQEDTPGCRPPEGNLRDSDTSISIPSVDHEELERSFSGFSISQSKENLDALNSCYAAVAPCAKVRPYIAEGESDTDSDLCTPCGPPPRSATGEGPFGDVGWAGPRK
T1 sequence (O43525 whole entry): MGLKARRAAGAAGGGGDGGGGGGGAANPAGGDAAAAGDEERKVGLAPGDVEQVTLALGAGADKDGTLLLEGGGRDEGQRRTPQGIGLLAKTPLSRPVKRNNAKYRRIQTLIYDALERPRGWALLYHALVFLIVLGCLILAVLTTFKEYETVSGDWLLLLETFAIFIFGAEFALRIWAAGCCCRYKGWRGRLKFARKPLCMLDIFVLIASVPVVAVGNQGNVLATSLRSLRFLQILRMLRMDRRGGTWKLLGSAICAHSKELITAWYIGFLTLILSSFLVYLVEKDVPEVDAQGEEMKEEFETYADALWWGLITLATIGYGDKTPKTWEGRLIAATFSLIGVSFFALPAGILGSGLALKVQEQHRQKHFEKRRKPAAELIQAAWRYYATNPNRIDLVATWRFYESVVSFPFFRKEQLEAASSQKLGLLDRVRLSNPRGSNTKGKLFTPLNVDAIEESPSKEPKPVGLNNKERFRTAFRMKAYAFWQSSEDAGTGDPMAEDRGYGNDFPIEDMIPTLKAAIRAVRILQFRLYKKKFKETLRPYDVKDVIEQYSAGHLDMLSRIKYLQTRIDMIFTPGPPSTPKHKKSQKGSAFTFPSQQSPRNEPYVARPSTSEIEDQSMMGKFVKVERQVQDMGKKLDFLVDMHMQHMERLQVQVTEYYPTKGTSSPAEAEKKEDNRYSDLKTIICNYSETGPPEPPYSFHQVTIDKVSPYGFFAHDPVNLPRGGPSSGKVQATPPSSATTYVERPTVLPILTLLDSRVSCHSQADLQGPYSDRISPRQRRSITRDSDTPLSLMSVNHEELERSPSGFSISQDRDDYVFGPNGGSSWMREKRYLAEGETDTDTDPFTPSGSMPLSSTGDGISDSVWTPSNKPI

EC50 [1] | EC50 [2] | EC50 [3] | ΔV ± SEM [4] | Compound
62 ± 15 µM | 70 µM | 36 µM |  | CC(C)c1ccc2c(c1)CC[C@H]1[C@](C)(COS(=O)(=O)O)CCC[C@]21C [Wu161, ((1R,4aS,10aR)-7-isopropyl-1,4a-dimethyl-1,2,3,4,4a,9,10,10a-octahydrophenanthren-1-yl)methyl hydrogen sulfate]
12 ± 3 µM |  |  |  | C[C@@]1(COS(=O)(=O)O)CCC[C@]2(C)c3cc(Cl)c(Cl)c(Cl)c3CC[C@@H]12 [Wu181, ((1R,4aS,10aR)-6,7,8-trichloro-1,4a-dimethyl-2,3,4,9,10,10a-hexahydrophenanthrene-1-yl)methyl hydrogen sulfate]
 |  |  | –1.5 ± 0.4 mV | CC(C)c1ccc2c(c1)CC[C@H]1[C@](C)(CNS(C)(=O)=O)CCC[C@]21C [Wu110, N-(((1R,4aS,10aR)-7-isopropyl-1,4a-dimethyl-1,2,3,4,4a,9,10,10a-octahydrophenanthren-1-yl)methyl)methanesulfonamide]
